pIC50: −log10 of the molar value. Read-outs that look alike come from different tables or passages of the source.
Biological target: T1, mouse TMEM16A mutant I636A (Mus musculus, UniProt Q8BHY3, I636A)
T1 construct: expressed in transfected cells; host or cells: HEK293T
T1 sequence (Q8BHY3 1-960 I636A): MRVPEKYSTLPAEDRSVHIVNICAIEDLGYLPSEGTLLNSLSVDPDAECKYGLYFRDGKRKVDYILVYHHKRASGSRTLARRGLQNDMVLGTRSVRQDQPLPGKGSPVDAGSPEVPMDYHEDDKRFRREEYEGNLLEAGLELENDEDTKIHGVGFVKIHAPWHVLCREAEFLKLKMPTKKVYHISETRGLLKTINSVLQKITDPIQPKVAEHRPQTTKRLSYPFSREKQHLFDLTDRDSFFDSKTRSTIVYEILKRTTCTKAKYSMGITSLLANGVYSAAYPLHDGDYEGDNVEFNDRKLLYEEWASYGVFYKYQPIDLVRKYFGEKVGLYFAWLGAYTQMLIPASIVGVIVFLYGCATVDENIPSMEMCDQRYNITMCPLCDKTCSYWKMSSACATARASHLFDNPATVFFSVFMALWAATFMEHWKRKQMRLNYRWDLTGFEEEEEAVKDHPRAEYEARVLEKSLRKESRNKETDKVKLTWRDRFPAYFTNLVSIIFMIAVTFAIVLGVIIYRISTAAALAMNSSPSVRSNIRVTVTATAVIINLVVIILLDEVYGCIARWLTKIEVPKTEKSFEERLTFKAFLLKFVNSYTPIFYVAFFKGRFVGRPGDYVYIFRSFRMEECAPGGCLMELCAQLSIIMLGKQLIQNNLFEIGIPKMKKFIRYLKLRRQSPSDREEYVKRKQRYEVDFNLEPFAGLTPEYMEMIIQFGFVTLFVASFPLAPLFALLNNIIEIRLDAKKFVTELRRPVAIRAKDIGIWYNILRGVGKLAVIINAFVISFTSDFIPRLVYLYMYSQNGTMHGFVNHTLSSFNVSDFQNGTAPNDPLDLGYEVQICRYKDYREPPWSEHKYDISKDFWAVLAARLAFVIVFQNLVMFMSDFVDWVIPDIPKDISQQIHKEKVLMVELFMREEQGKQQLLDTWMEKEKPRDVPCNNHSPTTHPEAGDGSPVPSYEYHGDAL
Experiment: Inside-out patch recording of 1PBC block, mutant I636A
Assay type: cell-based
Conditions: for remaining activity at 3 µM: 1PBC conc 3; for remaining activity at 3 µM / remaining activity at 10 µM / remaining activity at 30 µM / remaining activity at 100 µM: read-out: relative current in 1PBC (avr); for remaining activity at 10 µM: 1PBC conc 10; for remaining activity at 30 µM: 1PBC conc 30; for remaining activity at 100 µM: 1PBC conc 100
Protocol: HEK293T cells (ATCC CRL-1573) were maintained in Dulbecco’s modified Eagle’s medium (DMEM; Sigma-Aldrich) supplemented with 10 U ml^−1 penicillin, 0.1 mg ml^−1 streptomycin (Sigma-Aldrich), 2 mM L-glutamine (Sigma-Aldrich), and 10% FBS (Sigma-Aldrich) in a humidified atmosphere containing 5% CO2 at 37 °C. HEK293S GnTI^− cells (ATCC CRL-3022) were maintained in HyClone HyCell TransFx-H medium (GE Healthcare) supplemented with 10 U ml^−1 penicillin, 0.1 mg ml^−1 streptomycin, 4 mM L-glutamine, 0.15% poloxamer 188 (Sigma-Aldrich), and 1% FBS in an atmosphere containing 5% CO2 at 185 rpm at 37 °C. The ac splice variant of mouse TMEM16A (UniProt ID: Q8BHY3), mouse TMEM16B (UniProt ID: Q8CFW1), or mouse TMEM16F (UniProt ID: Q6P9J9) bearing a 3C cleavage site, a Venus YFP, a Myc tag, and a Streptavidin-binding peptide (SBP) downstream of the open reading frame in a modified pcDNA3.1 vector (Invitrogen) were used as described previously[21],[31]. Mutations were introduced using a modified QuikChange method[58] and were verified by sequencing.
HEK293T cells were transfected with 3–4 μg DNA per 6 cm Petri dish using the calcium phosphate co-precipitation method and were used within 24–96 h after transfection. Recordings were performed on inside-out patches excised from HEK293T cells expressing the construct of interest. Patch pipettes were pulled from borosilicate glass capillaries (O.D. 1.5 mm, I.D. 0.86 mm, Sutter Instrument) and were fire-polished with a microforge (Narishige) before use. Pipette resistance was typically 3–8 MΩ when filled with the recording solutions detailed below. Seal resistance was typically 4 GΩ or higher. Voltage-clamp recordings were made using Axopatch 200B, Digidata 1550, and Clampex 10.7 (Molecular Devices). Analog signals were filtered with the in-built 4-pole Bessel filter at 10 kHz and were digitized at 20 kHz. Solution exchange was achieved using a gravity-fed system through a theta glass pipette mounted on an ultra-fast piezo-driven stepper (Siskiyou). […] All recordings were performed at 20 °C.
A symmetrical ionic condition was used throughout. Stock solution with Ca^2+-EGTA contained 150 mM NaCl, 5.99 mM Ca(OH)2, 5 mM EGTA, and 10 mM HEPES at pH 7.40. Stock solution with EGTA contained 150 mM NaCl, 5 mM EGTA, and 10 mM HEPES at pH 7.40. Free Ca^2+ concentrations were adjusted by mixing the stock solutions at the required ratios calculated using the WEBMAXC program (http://web.stanford.edu/~cpatton/webmaxcS.htm). Patch pipettes were filled with the stock solution with Ca^2+-EGTA, which has a free Ca^2+ concentration of 1 mM. 1PBC (ChemBridge) stock was reconstituted in anhydrous DMSO (Sigma-Aldrich) at 100 mM and stored at −20 °C. Working solutions with 1PBC were prepared by serial dilution. Unless otherwise stated, experiments were performed at a saturating Ca^2+ concentration as shown in Supplementary Table 1 and the primary data were corrected for current rundown as described previously[21],[25].
Concentration-response relations, obtained from the ratio of the I-V plots before and after the application of the blocker, were fitted to the Hill equation,1 I/Imax=1/1+IC50/[blocker]^h where I/Imax is the normalized current responses, IC50 defines the concentration at which inhibition is at its half-maximum, and h is the Hill coefficient.

Structure (SMILES): N#Cc1c(C(F)(F)F)cc(O)n2c1nc1ccccc12 [1PBC]
- pIC50 (0 mV, 15 µM Ca2+): 5.17
- remaining activity at 3 µM (0 mV): 68.4%
- remaining activity at 10 µM (0 mV): 39.2%
- remaining activity at 30 µM (0 mV): 19.6%
- remaining activity at 100 µM (0 mV): 9.71%
- pIC50 (20 mV, 15 µM Ca2+): 5.26
- remaining activity at 3 µM (20 mV): 63.6%
- remaining activity at 10 µM (20 mV): 34.4%
- remaining activity at 30 µM (20 mV): 17.1%
- remaining activity at 100 µM (20 mV): 9.23%
- pIC50 (40 mV, 15 µM Ca2+): 5.33
- remaining activity at 3 µM (40 mV): 60.6%
- remaining activity at 10 µM (40 mV): 30.8%
- remaining activity at 30 µM (40 mV): 15.1%
- remaining activity at 100 µM (40 mV): 5.83%
- pIC50 (60 mV, 15 µM Ca2+): 5.39
- remaining activity at 3 µM (60 mV): 56.6%
- remaining activity at 10 µM (60 mV): 27.9%
- remaining activity at 30 µM (60 mV): 14.3%
- remaining activity at 100 µM (60 mV): 6.18%
- log-fold IC50 (change of mutant vs WT) (80 mV): 0.2863
- pIC50 (80 mV, 15 µM Ca2+): 5.42
- remaining activity at 3 µM (80 mV): 55.6%
- remaining activity at 10 µM (80 mV): 26.8%
- remaining activity at 30 µM (80 mV): 13.6%
- remaining activity at 100 µM (80 mV): 5.37%
- pIC50 (100 mV, 15 µM Ca2+): 5.41
- remaining activity at 3 µM (100 mV): 55.3%
- remaining activity at 10 µM (100 mV): 27%
- remaining activity at 30 µM (100 mV): 15.6%
- remaining activity at 100 µM (100 mV): 5.12%
- pIC50 (120 mV, 15 µM Ca2+): 5.39
- remaining activity at 3 µM (120 mV): 56.6%
- remaining activity at 10 µM (120 mV): 27.6%
- remaining activity at 30 µM (120 mV): 16%
- remaining activity at 100 µM (120 mV): 4.9%
- pIC50 (140 mV, 15 µM Ca2+): 5.35
- remaining activity at 3 µM (140 mV): 58.9%
- remaining activity at 10 µM (140 mV): 29.8%
- remaining activity at 30 µM (140 mV): 17.2%
- remaining activity at 100 µM (140 mV): 5.22%
- pIC50 (-20 mV, 15 µM Ca2+): 5.09
- remaining activity at 3 µM (-20 mV): 73.2%
- remaining activity at 10 µM (-20 mV): 44.1%
- remaining activity at 30 µM (-20 mV): 22.1%
- remaining activity at 100 µM (-20 mV): 10.2%
- pIC50 (-40 mV, 15 µM Ca2+): 4.99
- remaining activity at 3 µM (-40 mV): 77.7%
- remaining activity at 10 µM (-40 mV): 49.5%
- remaining activity at 30 µM (-40 mV): 25.2%
- remaining activity at 100 µM (-40 mV): 11%
- pIC50 (-60 mV, 15 µM Ca2+): 4.90
- remaining activity at 3 µM (-60 mV): 81.7%
- remaining activity at 10 µM (-60 mV): 54.6%
- remaining activity at 30 µM (-60 mV): 29.3%
- remaining activity at 100 µM (-60 mV): 11.8%
- pIC50 (-80 mV, 15 µM Ca2+): 4.80
- remaining activity at 3 µM (-80 mV): 85.2%
- remaining activity at 10 µM (-80 mV): 60.7%
- remaining activity at 30 µM (-80 mV): 34%
- remaining activity at 100 µM (-80 mV): 16.3%
- pIC50 (-100 mV, 15 µM Ca2+): 4.72
- remaining activity at 3 µM (-100 mV): 87.8%
- remaining activity at 10 µM (-100 mV): 65.1%
- remaining activity at 30 µM (-100 mV): 37.6%
- remaining activity at 100 µM (-100 mV): 18.6%
- pIC50 (-120 mV, 15 µM Ca2+): 4.63
- remaining activity at 3 µM (-120 mV): 90.9%
- remaining activity at 10 µM (-120 mV): 69.5%
- remaining activity at 30 µM (-120 mV): 41.8%
- remaining activity at 100 µM (-120 mV): 22.1%
- pIC50 (-140 mV, 15 µM Ca2+): 4.56
- remaining activity at 3 µM (-140 mV): 92.3%
- remaining activity at 10 µM (-140 mV): 72.1%
- remaining activity at 30 µM (-140 mV): 45.6%
- remaining activity at 100 µM (-140 mV): 25.9%
- pIC50 (I636A, V 0 mV): 5.17
- pIC50 (I636A, V 20 mV): 5.26
- pIC50 (I636A, V 40 mV): 5.33
- pIC50 (I636A, V 60 mV): 5.39
- pIC50 (I636A, V 80 mV): 5.42
- pIC50 (I636A, V 100 mV): 5.41
- pIC50 (I636A, V 120 mV): 5.39
- pIC50 (I636A, V 140 mV): 5.35
- pIC50 (I636A, V -20 mV): 5.08
- pIC50 (I636A, V -40 mV): 4.99
- pIC50 (I636A, V -60 mV): 4.90
- pIC50 (I636A, V -80 mV): 4.79
- pIC50 (I636A, V -100 mV): 4.72
- pIC50 (I636A, V -120 mV): 4.63
- pIC50 (I636A, V -140 mV): 4.56
